The values below are quoted from earlier work in EP0214616A2, “Acetylenic prostaglandins” (G.D. Searle & Co., priority 1985, dated 1987).

The series deals with gastric secretion. To be noted: at the highest dose tested (100ug/kg).

For `CCCCC(C)(O)C/C=C/[C@H]1[C@H](O)CC(=O)[C@@H]1CCC#CCCC(=O)OC` (mixture of isomers) [Example C90001], the gastric antisecretory activity result was “devoid of gastric antisecretory activity”.
